Test results from ChEMBL document CHEMBL4673211, “A new Chlorin formulation promotes efficient photodynamic action in choriocapillaris of rabbit's eyes” (Bioorg Med Chem Lett, 2018).
Activity calls are given as the source filed them. The rule behind the calls is not given here.

Experiments:
[1] = Aggregation property of the compound in toluene at 130 degreeC under inert atmosphere; type: physicochemical
[2] = Induction of singlet oxygen generation in 9:1 acetonitrile/water mixture assessed as singlet oxygen quantum yield irradiated with 532 nanometer laser light; type: functional
[3] = Toxicity in New Zealand rabbit assessed as effect on hepatic profile pretreated with compound at 6 mg/m2, iv followed by diode laser irradiation at 650 nm measured after 24 hrs by fluorescein angiogram; type: organism-based, Oryctolagus cuniculus; settings: in vivo, 0.65 µM, dose 6 mg/m2, time 24 hrs
[4] = tested on: Oryctolagus cuniculus; assay: Photodynamic activity in New Zealand rabbit assessed as outer blood-retinal barrier breakdown causing hyper-fluorescence in left eye pretreated with compound at 6 mg/m2, iv followed by diode laser irradiation at 650 nm measured after 24 hrs by fluorescein angiogram; type: functional, organism-based; settings: dose 6.0 mg/m2, time 24.0 hrs
[5] = Toxicity in New Zealand rabbit assessed as effect on renal profile pretreated with compound at 6 mg/m2, iv followed by diode laser irradiation at 650 nm measured after 24 hrs by fluorescein angiogram; type: organism-based, Oryctolagus cuniculus; settings: in vivo, 0.65 µM, dose 6 mg/m2, time 24 hrs
[6] = tested on: Oryctolagus cuniculus; assay: Photodynamic activity in New Zealand rabbit assessed as appearance of pallor area of one qaurter-diameter disc shaped in left eye pretreated with compound at 6 mg/m2, iv followed by diode laser irradiation at 650 nm measured after 24 hrs by retinography; type: functional, organism-based; settings: dose 6.0 mg/m2, time 24.0 hrs
[7] = tested on: Oryctolagus cuniculus; assay: Photodynamic activity in New Zealand rabbit assessed as blood flow obstruction causing hypo-fluorescent lesion in left eye pretreated with compound at 6 mg/m2, iv followed by diode laser irradiation at 650 nm measured after 24 hrs by fluorescein angiogram; type: functional, organism-based; settings: dose 6.0 mg/m2, time 24.0 hrs
[8] = Induction of singlet oxygen generation assessed as singlet oxygen quantum yield using liposome formulated compound; type: functional
[9] = tested on: Oryctolagus cuniculus; assay: Photodynamic activity in New Zealand rabbit assessed as vascular occlusion causing hypo-fluorescent lesion in left eye pretreated with compound at 6 mg/m2, iv followed by diode laser irradiation at 650 nm measured after 24 hrs by fluorescein angiogram; type: functional, organism-based; settings: dose 6.0 mg/m2, time 24.0 hrs
[10] = tested on: Oryctolagus cuniculus; assay: Photodynamic activity in New Zealand rabbit assessed as induction of choriocapillaris occlusion in left eye pretreated with compound at 6 mg/m2, iv followed by diode laser irradiation at 650 nm by indirect ophthalmoscopy; type: functional, organism-based
[11] = Photoactivity of the compound
[12] = Toxicity in New Zealand rabbit assessed as retinal damage in left eye pretreated with compound at 6 mg/m2, iv followed by diode laser irradiation at 650 nm measured after 24 hrs by fluorescein angiogram; type: organism-based, Oryctolagus cuniculus; settings: in vivo, 0.65 µM, dose 6 mg/m2, time 24 hrs

| Activity [1] | SMILES | Activity [2] | Activity [3] | Activity [4] | Activity [5] | Activity [6] | Activity [7] | Activity [8] | Activity [9] | Activity [10] | Activity [11] | Activity [12] |
| --- | --- | --- | --- | --- | --- | --- | --- | --- | --- | --- | --- | --- |
| Not Active | C=Cc1c(C)c2cc3nc(cc4[nH]c(cc5nc(cc1[nH]2)[C@@]1(C)C5=CC[C@H]2C(=O)N(c5ccc([N+](=O)[O-])cc5)C(=O)[C@H]21)c(C)c4CCC(=O)OC)C(CCC(=O)OC)=C3C | 0.6 | Non-Toxic | Active | Non-Toxic | Active | Active | 0.5 | Active | Active | Active | Non-Toxic |
| Not Active | C=CC1=C(C)c2cc3[nH]c(cc4nc(cc5[nH]c(cc1n2)c(C)c5CCC(=O)OC)C(CCC(=O)OC)=C4C)[C@@]1(C)C3=CCC2C(=O)N(c3ccc([N+](=O)[O-])cc3)C(=O)C21 (some centres undefined) | 0.6 | Non-Toxic | Active | Non-Toxic | Active | Active | 0.5 | Active | Active | Active | Non-Toxic |
